Reference: patent US8476283B2, “[6,5]—bicyclic GPR119 G protein-coupled receptor agonists” (Bristol-Myers Squibb Company, priority 2007, dated 2013)

Molecular target: T1, GPR119 (Homo sapiens, UniProt Q8TDV5)
T1 construct: expressed in transfected cells; host or cells: Flp-In-T-REx 293
T1 sequence (Q8TDV5 1-335): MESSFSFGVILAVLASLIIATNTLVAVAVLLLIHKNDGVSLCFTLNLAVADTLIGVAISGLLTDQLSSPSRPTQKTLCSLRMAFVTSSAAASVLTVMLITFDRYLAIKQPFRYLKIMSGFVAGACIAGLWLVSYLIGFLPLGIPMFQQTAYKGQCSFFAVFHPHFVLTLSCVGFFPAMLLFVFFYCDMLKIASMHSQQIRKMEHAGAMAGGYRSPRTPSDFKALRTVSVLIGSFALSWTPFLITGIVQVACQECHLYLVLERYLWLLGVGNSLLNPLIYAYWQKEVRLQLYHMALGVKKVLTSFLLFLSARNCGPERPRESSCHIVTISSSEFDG
Experiment: Human Tet-Inducible cAMP Assay (hEC50, Table 1)
Type: cell-based
Design: IA: scale not given here
Conditions: for IA: IA as printed beside hEC50 (not defined in the text); for EC50: human GPR119 agonist activity, cAMP
Method: The in vitro modulation of GPR119 was determined as follows.
Human Tet-Inducible cAMP Assay
Cell lines using the Flp-In-T-REx 293 tetracycline inducible gene expression system are cultured in culture medium comprising the following components: DMEM#11965, 10% FBS, 2 mM L-glutamine, 200 ug/ml Hygromycin B, and 15 ug/ml blasticidin.
For cAMP assays, cells are plated on 96 well plates (e.g., BD Falcon: REF 353948, black side, clear bottom, TC surface) at a density of about 4.5×10^4 cells per well in growth medium containing 1.0 ug/ml tetracycline (1.0 mg/ml stock). The cells are then incubated for 48 hours at 37° C.
Following the incubation, the growth medium is removed from the wells and the wells rinsed (once) with the assay buffer included in the Hit Hunter cAMP kit (100 μl/well). Following the wash, 20 μl of assay buffer is added to each well, followed by addition of 10 μl of a 3× concentration compound working solution. The solution is then mixed. The final concentration range of compound is from about 10^−5M to about 10^−11M. The reagents are then incubated at 37° C. at 5% CO2 for 1 hour.
The manufacturer's protocol may be followed for cAMP determination. The Hit Hunter cAMP kit protocol is outlined for the HIT-T15 cAMP assays described above.

| SMILES | IA | EC50 [nM] |
| --- | --- | --- |
| CC(C)(C)OC(=O)N1CCC(n2nnc3c(Nc4ccc(S(C)(=O)=O)cc4F)nccc32)CC1 [Example 1, tert-Butyl 4-(4-(2-fluoro-4-(methylsulfonyl)phenylamino)-1H-[1,2,3]triazolo[4,5-c]pyridin-1-yl)piperidine-1-carboxylate] | 0.55 | 1390 |
| CC(C)(C)OC(=O)N1CCC(n2nnc3c(Oc4ccc(S(C)(=O)=O)cc4)nccc32)CC1 [Example 2, tert-Butyl 4-(4-(4-(methylsulfonyl)phenoxy)-1H-[1,2,3]triazolo[4,5-c]pyridin-1-yl)piperidine-1-carboxylate] | 0.29 | 3550 |
| CC(C)(C)OC(=O)N1CCC(n2nnc3c(Nc4ccc(S(C)(=O)=O)cc4F)ncnc32)CC1 [Example 3, tert-Butyl 4-(7-(2-fluoro-4-(methylsulfonyl)phenylamino)-3H-[1,2,3]triazolo[4,5-d]pyrimidin-3-yl)piperidine-1-carboxylate] | – | 19.5 |
| CC(C)(C)OC(=O)N1CCC(n2cnc3c(Nc4ccc(C#N)cc4F)ncnc32)CC1 [Example 4, tert-Butyl 4-(6-(4-cyano-2-fluorophenylamino)-9H-purin-9-yl)piperidine-1-carboxylate] | 0.70 | 287 |
| CC(C)(C)OC(=O)N1CCC(n2nnc3c(Nc4ccc(C#N)cc4Cl)nccc32)CC1 [Example 5, tert-Butyl 4-(4-(2-chloro-4-cyanophenylamino)-1H-[1,2,3]triazolo[4,5-c]pyridin-1-yl)piperidine-1-carboxylate] | 0.27 | 411 |
| CC(C)OC(=O)N1CCC(n2nnc3c(Nc4ccc(S(C)(=O)=O)cc4F)ncnc32)CC1 [Example 6, iso-Propyl 4-(7-(2-fluoro-4-(methylsulfonyl)phenylamino)-3H-[1,2,3]triazolo[4,5-d]pyrimidin-3-yl)piperidine-1-carboxylate] | 0.86 | 140 |
| CC(C)OC(=O)N1CCC(n2nnc3c(Nc4ccc(S(C)(=O)=O)cc4Cl)ncnc32)CC1 [Example 7, iso-Propyl 4-(7-(2-chloro-4-(methylsulfonyl)phenylamino)-3H-[1,2,3]triazolo[4,5-d]pyrimidin-3-yl)piperidine-1-carboxylate] | 0.68 | 74.9 |
| CS(=O)(=O)c1ccc(Nc2ncnc3c2nnn3C2CCN(c3ncccn3)CC2)c(F)c1 [Example 8, N-(2-Fluoro-4-(methylsulfonyl)phenyl)-3-(1-(pyrimidin-2-yl)piperidin-4-yl)-3H-[1,2,3]triazolo[4,5-d]pyrimidin-7-amine] | 0.67 | 218 |
| CCc1cnc(N2CCC(n3nnc4c(Nc5ccc(S(C)(=O)=O)cc5F)ncnc43)CC2)nc1 [Example 9, 3-(1-(5-Ethylpyrimidin-2-yl)piperidin-4-yl)-N-(2-fluoro-4-(methylsulfonyl)phenyl)-3H-[1,2,3]triazolo[4,5-d]pyrimidin-7-amine] | 0.56 | 263 |

Continued, values first:

| IA | EC50 [nM] | SMILES |
| --- | --- | --- |
| 0.79 | 407 | CC(C)OC(=O)N1CCC(n2cnc3c(Nc4ccc(S(C)(=O)=O)cc4F)ncnc32)CC1 [Example 10, iso-Propyl 4-(6-(2-fluoro-4-(methylsulfonyl)phenylamino)-9H-purin-9-yl)piperidine-1-carboxylate] |
| 0.81 | 367 | CS(=O)(=O)c1ccc(Nc2ncnc3c2ncn3C2CCN(c3ncccn3)CC2)c(F)c1 [Example 11, N-(2-Fluoro-4-(methylsulfonyl)phenyl)-9-(1-(pyrimidin-2-yl)piperidin-4-yl)-9H-purin-6-amine] |
| 0.47 | 203 | CS(=O)(=O)c1ccc(Nc2ncnc3c2cnn3C2CCN(C(=O)OCc3ccccc3)CC2)c(F)c1 [Example 12, Benzyl 4-(4-(2-fluoro-4-(methylsulfonyl)phenylamino)-1H-pyrazolo[3,4-d]pyrimidin-1-yl)piperidine-1-carboxylate] |
| 0.69 | 308 | CC(C)OC(=O)N1CCC(n2ncc3c(Nc4ccc(S(C)(=O)=O)cc4F)ncnc32)CC1 [Example 13, Isopropyl 4-(4-(2-fluoro-4-(methylsulfonyl)phenylamino)-1H-pyrazolo[3,4-d]pyrimidin-1-yl)piperidine-1-carboxylate] |
| 0.76 | 545 | CS(=O)(=O)c1ccc(Nc2ncnc3c2cnn3C2CCN(c3ncccn3)CC2)c(F)c1 [Example 14, N-(2-Fluoro-4-(methylsulfonyl)phenyl)-1-(1-(pyrimidin-2-yl)piperidin-4-yl)-1H-pyrazolo[3,4-d]pyrimidin-4-amine] |
| 0.94 | 76.2 | CCc1cnc(N2CCC(n3ncc4c(Nc5ccc(S(C)(=O)=O)cc5F)ncnc43)CC2)nc1 [Example 15, 1-(1-(5-Ethylpyrimidin-2-yl)piperidin-4-yl)-N-(2-fluoro-4-(methylsulfonyl)phenyl)-1H-pyrazolo[3,4-d]pyrimidin-4-amine] |
| 1.11 | 81.8 | CCCc1cnc(N2CCC(n3ncc4c(Nc5ccc(S(C)(=O)=O)cc5F)ncnc43)CC2)nc1 [Example 16, N-(2-Fluoro-4-(methylsulfonyl)phenyl)-1-(1-(5-propylpyrimidin-2-yl)piperidin-4-yl)-1H-pyrazolo[3,4-d]pyrimidin-4-amine] |
| 0.31 | 1900 | Cc1ncccc1Oc1ncnc2c1cnn2C1CCN(C(=O)OCc2ccccc2)CC1.Cl [Example 17, Benzyl 4-(4-(2-methylpyridin-3-yloxy)-1H-pyrazolo[3,4-d]pyrimidin-1-yl)piperidine-1-carboxylate, hydrochloride salt] |
| 0.17 | 2720 | Cc1ncccc1Oc1ncnc2c1cnn2C1CCN(C(=O)OC(C)C)CC1.Cl [Example 18, Isopropyl 4-(4-(2-methylpyridin-3-yloxy)-1H-pyrazolo[3,4-d]pyrimidin-1-yl)piperidine-1-carboxylate, hydrochloride salt] |
| 0.13 | 505 | CC(C)OC(=O)N1CCC(n2ncc3c(Oc4cccnc4C#N)ncnc32)CC1 [Example 19, Isopropyl 4-(4-(2-cyanopyridin-3-yloxy)-1H-pyrazolo[3,4-d]pyrimidin-1-yl)piperidine-1-carboxylate] |
